From patent US20090182040A1, “Method of Preventing or Reducing Insecticidal Resistance” (BASF SE, priority 2006, published 2009)

Tested on: adult pollen beetles with resistance against pyrethroids
Experiment: Field trial on a commercial oilseed rape field: spray treatment, count of living adult pollen beetles
Format: in vivo, Meligethes aeneus
Procedure: Experiments were carried out on a commercial oilseed rape field location previously confirmed to have adult pollen beetles with resistance against pyrethroids. The experiments were carried out according the GEP settings for field trial set up and corresponding assessment of the treatments. The lay-out was a standard randomized block de-sign with 4 replicates. The different treatments (see Table 1 below) were prepared by diluting the respective products in water by well homogenized standard stirring in order to spray the four replicates at a spray volume of 300 to 400 liter per ha. The products used were the commercial formulation Fastac® OESC (containing 100 g per liter alpha-cypermethrin) and an experimental liquid formulation (containing 303.5 g PBO on a weight per weight basis). The three combinations of Fastac® OESC and the PBO containing liquid formulation in the Table 1 below were made as a tank mix of a standard rate of Fastac® OESC and a varying rate for the PBO containing formulation. The treatments were sprayed on the plants and the adult pollen beetles present on the plant by means of a knapsack sprayer at standard air pressure. The treatments were applied shortly after each other by appropriate rinsing in between according the GEP standard procedure. The development growth stage of the oilseed rape according to the BBCH code at the time of the treatment was 50 to 59 (the abbreviation “BBCH” stands for the Biologische Bundesanstalt, Bundessortenamt and Chemische Industrie). Shortly before the treatment the present adult pollen beetles were assessed in counting the number of adult pollen beetles present on 50 inflorescences—randomly taken—in each of the replicates. The total number of adult pollen beetles on the 4 replicates was then divided by 4 to give the average number of living adult pollen beetles per 50 inflorescenses, mentioned in the Table 1 below. The same procedure was followed respectively 3 and 6 days after the treatment (DAT).

## CC1(C)C(C=C(Cl)Cl)C1C(=O)OC(C#N)c1cccc(Oc2ccccc2)c1 (stereo not drawn) [alpha-cypermethrin]
alpha-cypermethrin 7.5 g a.i./ha, 0 DAT (count shortly before treatment), oilseed rape field, 4 replicates
  Average number of living adult pollen beetles per 50 inflorescenses: 343
alpha-cypermethrin 7.5 g a.i./ha, 3 DAT
  Average number of living adult pollen beetles per 50 inflorescenses: 119
alpha-cypermethrin 7.5 g a.i./ha, 6 DAT
  Average number of living adult pollen beetles per 50 inflorescenses: 75
alpha-cypermethrin 12.5 g a.i./ha, 0 DAT (count shortly before treatment)
  Average number of living adult pollen beetles per 50 inflorescenses: 352
alpha-cypermethrin 12.5 g a.i./ha, 3 DAT
  Average number of living adult pollen beetles per 50 inflorescenses: 116
alpha-cypermethrin 12.5 g a.i./ha, 6 DAT
  Average number of living adult pollen beetles per 50 inflorescenses: 79
